Experimental data reported in paper PMC6611794, “Development of a high-throughput strategy for discovery of potent analogues of antibiotic lysocin E” (Nature Communications, 2019).
Converted amounts (≈) assume the structure as drawn. “And” between values parts separate entries of the source, which are not always exact repeats. Identical values can stand only once. Where a SMILES comes first, the peptide text is derived from it. Bridges are numbered along the chain shown (N, C = ends). [ ]: non-standard residue; d: D form. The star is where a group is joined. Hexanoyl(3R-OH,5-Me) = CC(C)C[C@@H](O)CC(=O)*; dNMeF = CN[C@H](Cc1ccccc1)C(=O)O; dOrn = NCCC[C@@H](N)C(=O)O

Legend:
[1] = system: Staphylococcus aureus MSSA1; details: 10% BCS
Method: Evaluation of antimicrobial spectra of peptides. The MIC assay was performed according to the Clinical and Laboratory Standards Institute protocols. The antimicrobial activities of the peptides were measured using the broth microdilution method.1 Serial dilutions of peptides were prepared in cation adjusted Müller Hinton Broth. Each dilution (100 µL) was dispensed to each well of the round-bottom plate to obtain final concentrations ranging from 64 µg/m L to 0.0075 µg/m L. Bacteria were grown at 37 °C overnight on Tryptic Soy Broth or Müller Hinton Broth agar plates. Bacterial inoculum was prepared by direct suspension of the colonies in 0.9% saline, and adjusted to obtain OD 625 0.08–0.13 using a spectrophotometer UV -1280 (Shimadzu). The resultant suspension was diluted with cation adjusted Müller Hinton Broth (1/20). The resultant mixture (10 µL) was inoculated to each well of the plates (approximately 5 ×10^4 CFU/well ), mixed, and incubated at 37 °C for 18 h. The MIC value was determined as the minimum concentration that inhibited growth of bacteria. To evaluate the antimicrobial activities of peptides in the presence of serum, 10% bovine calf serum in cation adjusted Müller Hinton Broth was used.

[2] = system: MRSA4; assay type: cell-based, Staphylococcus aureus; details: 18 h
Method: Antimicrobial activity assay of bead-derived peptides. […]
plate was added DMSO (1 µL/well). […]
precipitation of the grown cells was examined.
Evaluation of antimicrobial spectra of peptides. The MIC assay was performed according to the Clinical and Laboratory Standards Institute protocols. The antimicrobial activities of the peptides were measured […]
Soy Broth or Müller Hinton Broth agar plates. Bacterial inoculum was prepared by direct suspension of the […]
and incubated at 37 °C for 18 h. […]
inhibited growth of bacteria.

[3] = On-bead menaquinone complexation assay (fluorescence of 2H); assay type: binding; details: single library bead (hit beads >1000 a.u.), average of three readings
Method: Next, the feasibility of the on-bead complexation assay was assessed using bead-linked lysocin E 30 and MK-4 (2). Our initial assay based on the finding that 1 and 2 form a red precipitate upon complexation (Supplementary Fig. 2) was not robust, because the magnitude of the red color was not proportional to the amount of captured 2 (Fig. 2b, c). We therefore developed a fluorescence-based method for quantifying 2 by reducing its naphthoquinone moiety to fluorescent hydroquinone 2H. One bead of 30 was incubated with 2 in MeOH, washed by MeOH in a microplate well, and then the bead-bound 2 was eluted under more forcing hydrophobic conditions (n-BuOH at 50 °C). The eluate containing 2 was treated with NaBH4 in n-BuOH to produce 2H[46]. The fluorescence intensity of 2H was evaluated to determine the quantity of 2 bound to one bead of 30. The method was found with a small margin of error (1026 ± 64 a.u.), indicating its high accuracy (Fig. 2a and Supplementary Fig. 3). Importantly, the structure of 1 remained intact during the complexation assay as judged by UHPLC and mass analyses.
General procedures for menaquinone complexation assay. To the bead-linked lysocin E analogues in LibraTube was added a solution of menaquinone-4 (2) in MeOH (10 mM, 1.0 mL/1000 beads). The mixture was incubated at room temperature for 12 h. A suspension of the beads in MeOH (200 beads/200 µL) was transferred to a 2.0 mL microtube.
Each bead in the microtube was transferred to each well of a 96-well filtration plate (278011, Thermo Fisher Scientific, 1 bead/well) with the solution of 2 (20 µL/bead) using a micropipette. To each well was added MeOH (400 µL), and the beads was filtered by gravity flow (× 3). The beads in the plate were dried under vacuum for 0.5–1 h. The dried beads were transferred to a 96-well PCR plate (652270, Greiner bio-one, 1 bead/well) with MeOH (20 µL/well) using a micropipette. The solution was removed under a stream of Ar at 40 °C to give the 2-bound bead-linked peptides.
To the 2-bound bead-linked peptides in the plate was added n-BuOH (30 µL/well) at room temperature .
The suspension was incubated at 50 °C for 1 h. The resultant mixture in the plate was centrifuged at 3500 × g at room temperature for 10 sec . The supernatant in each well was transferred to the corresponding well of a black polystyrene flat -bottom 96-well plate (655086, Greiner bio-one). The solution was concentrated under a stream of Ar at 40 °C to give the eluted 2.
To the above eluted 2 in the plate was added n-BuOH (25 µL/well) at room temperature. The plate was vortexed at room temperature for 10 min. To the resultant solution was added a solution of NaBH4 in n-BuOH (1.0 mM, 25 µL/well). The plate was vortexed at room temperature for 10 min. The fluorescence of menahydroquinone (2H, Ex. 250 nm/Em. 430 nm) of each well was measured at room temperature every 3 min (0, 3, and 6 min) on Gemini EM microplate reader (Molecular Devices) . The three fluorescence intensities of each bead were averaged and plotted against the bead number.
Evaluation of menaquinone complexation activities of the selected bead-linked peptides. Bead-linked peptides 30, BLP1, and BLP2 were synthesized according to the above described procedures (loading rate:
0.222 mmol/g). The bead-linked peptides were subjected to the MK complexation assay described above.
The obtained fluorescent intensities of 2H (arbitrary unit) were 1026 ± 64 for 30, 396 ± 27 for BLP1, 72.9 ± 2.0 for BLP2, and 41.6 ± 0.1 for background adsorption (no bead), respectively (Supplementary Figure 3).

MIC [2] | Compound | antimicrobial activity relative to parent 1 [1] | fluorescence intensity of 2H [3] | fluorescence intensity of 2H ([3]; listed as KLVI) | fluorescence intensity of 2H ([3]; listed as YLOI)
0.25 mg/L (≈ 0.156 µM) | CC[C@H](C)[C@@H]1NC(=O)[C@@H](Cc2c[nH]c3ccccc23)NC(=O)[C@@H](CCC(N)=O)NC(=O)[C@H](CCC(=O)O)NC(=O)[C@@H](CCCNC(=N)N)NC(=O)[C@H](CC(C)C)NC(=O)[C@@H](Cc2ccccc2)N(C)C(=O)CNC(=O)[C@H](C)NC(=O)[C@@H](CCCNC(=N)N)NC(=O)[C@@H](NC(=O)C[C@H](O)CC(C)C)[C@@H](C)OC(=O)[C@H]([C@@H](C)O)NC1=O [Peptide A1] ({Hexanoyl(3R-OH,5-Me)}-T[dR]AG[dNMeF]L[dR]E[dQ][dW]IT; ester 1-C) | 4 fold | 1237.12 a.u. | – | –
0.25 mg/L (≈ 0.159 µM) | CC[C@H](C)[C@@H]1NC(=O)[C@@H](Cc2c[nH]c3ccccc23)NC(=O)[C@@H](C(C)C)NC(=O)[C@H](CCC(=O)O)NC(=O)[C@@H](CCCNC(=N)N)NC(=O)[C@H](CC(C)C)NC(=O)[C@@H](Cc2ccccc2)N(C)C(=O)CNC(=O)[C@H](C)NC(=O)[C@@H](CCCNC(=N)N)NC(=O)[C@@H](NC(=O)C[C@H](O)CC(C)C)[C@@H](C)OC(=O)[C@H]([C@@H](C)O)NC1=O [Peptide A2] ({Hexanoyl(3R-OH,5-Me)}-T[dR]AG[dNMeF]L[dR]E[dV][dW]IT; ester 1-C) | 4 fold | 1152.24 a.u. | – | –
0.125 mg/L (≈ 0.0767 µM) | CC[C@H](C)[C@@H]1NC(=O)[C@@H](Cc2c[nH]c3ccccc23)NC(=O)[C@@H](C(C)C)NC(=O)[C@H](CCC(=O)O)NC(=O)[C@@H](CCCNC(=N)N)NC(=O)[C@H](CC(C)C)NC(=O)[C@@H](Cc2ccccc2)N(C)C(=O)CNC(=O)[C@H](CCCCN)NC(=O)[C@@H](CCCNC(=N)N)NC(=O)[C@@H](NC(=O)C[C@H](O)CC(C)C)[C@@H](C)OC(=O)[C@H]([C@@H](C)O)NC1=O [Peptide A3] ({Hexanoyl(3R-OH,5-Me)}-T[dR]KG[dNMeF]L[dR]E[dV][dW]IT; ester 1-C) | 4 fold | – | 1439.45 a.u. and 1379.53 a.u. | –
– | CC[C@H](C)[C@@H]1NC(=O)[C@@H](Cc2c[nH]c3ccccc23)NC(=O)[C@@H](CCCN)NC(=O)[C@H](CCC(=O)O)NC(=O)[C@@H](CCCNC(=N)N)NC(=O)[C@H](CC(C)C)NC(=O)[C@@H](Cc2ccccc2)N(C)C(=O)CNC(=O)[C@H](Cc2ccc(O)cc2)NC(=O)[C@@H](CCCNC(=N)N)NC(=O)[C@@H](NC(=O)C[C@H](O)CC(C)C)[C@@H](C)OC(=O)[C@H]([C@@H](C)O)NC1=O [Peptide A7] ({Hexanoyl(3R-OH,5-Me)}-T[dR]YG[dNMeF]L[dR]E[dOrn][dW]IT; ester 1-C) | – | – | – | 1035.66 a.u. and 1123.94 a.u.
– | CC[C@H](C)[C@@H]1NC(=O)[C@@H](Cc2c[nH]c3ccccc23)NC(=O)[C@@H](CCCN)NC(=O)[C@H](CCC(=O)O)NC(=O)[C@@H](CCCNC(=N)N)NC(=O)[C@H](CC(C)C)NC(=O)[C@@H](Cc2ccccc2)N(C)C(=O)CNC(=O)[C@H](CC(N)=O)NC(=O)[C@@H](CCCNC(=N)N)NC(=O)[C@@H](NC(=O)C[C@H](O)CC(C)C)[C@@H](C)OC(=O)[C@H]([C@@H](C)O)NC1=O [Peptide A14] ({Hexanoyl(3R-OH,5-Me)}-T[dR]NG[dNMeF]L[dR]E[dOrn][dW]IT; ester 1-C) | – | 1470.92 a.u. | – | –
– | CC(C)C[C@@H](O)CC(=O)N[C@@H]1C(=O)N[C@H](CCCNC(=N)N)C(=O)N[C@@H](C)C(=O)NCC(=O)N(C)[C@H](Cc2ccccc2)C(=O)N[C@@H](CC(C)C)C(=O)N[C@H](CCCNC(=N)N)C(=O)N[C@@H](CCC(=O)O)C(=O)N[C@H](Cc2ccc(O)cc2)C(=O)N[C@H](Cc2c[nH]c3ccccc23)C(=O)N[C@@H](Cc2ccc(O)cc2)C(=O)N[C@@H]([C@@H](C)O)C(=O)O[C@@H]1C [Peptide A15] ({Hexanoyl(3R-OH,5-Me)}-T[dR]AG[dNMeF]L[dR]E[dY][dW]YT; ester 1-C) | – | 1125.25 a.u. | – | –
– | CC[C@H](C)[C@@H]1NC(=O)[C@@H](Cc2c[nH]c3ccccc23)NC(=O)[C@@H](CCCN)NC(=O)[C@H](CCC(=O)O)NC(=O)[C@@H](CCCNC(=N)N)NC(=O)[C@H](CC(C)C)NC(=O)[C@@H](Cc2ccccc2)N(C)C(=O)CNC(=O)[C@H](CC(=O)O)NC(=O)[C@@H](CCCNC(=N)N)NC(=O)[C@@H](NC(=O)C[C@H](O)CC(C)C)[C@@H](C)OC(=O)[C@H]([C@@H](C)O)NC1=O [Peptide A16] ({Hexanoyl(3R-OH,5-Me)}-T[dR]DG[dNMeF]L[dR]E[dOrn][dW]IT; ester 1-C) | – | 1414.45 a.u. | – | –
– | CC[C@H](C)[C@@H]1NC(=O)[C@@H](Cc2c[nH]c3ccccc23)NC(=O)[C@@H](Cc2ccc(O)cc2)NC(=O)[C@H](CCC(=O)O)NC(=O)[C@@H](CCCNC(=N)N)NC(=O)[C@H](CC(C)C)NC(=O)[C@@H](Cc2ccccc2)N(C)C(=O)CNC(=O)[C@H](CC(=O)O)NC(=O)[C@@H](CCCNC(=N)N)NC(=O)[C@@H](NC(=O)C[C@H](O)CC(C)C)[C@@H](C)OC(=O)[C@H]([C@@H](C)O)NC1=O [Peptide A17] ({Hexanoyl(3R-OH,5-Me)}-T[dR]DG[dNMeF]L[dR]E[dY][dW]IT; ester 1-C) | – | 1396.02 a.u. | – | –
